The source of these data is ChEMBL document CHEMBL1136476, “Catechol-substituted L-chicoric acid analogues as HIV integrase inhibitors” (Bioorg Med Chem Lett, 2003).

Some results are limits rather than exact numbers.

The target of the assay is Human immunodeficiency virus type 1 integrase (Human immunodeficiency virus 1, UniProt Q7ZJM1). The assay can be described thus: Inhibitory activity against HIV-1 integrase.
Chain of Human immunodeficiency virus type 1 integrase (Q7ZJM1 whole entry): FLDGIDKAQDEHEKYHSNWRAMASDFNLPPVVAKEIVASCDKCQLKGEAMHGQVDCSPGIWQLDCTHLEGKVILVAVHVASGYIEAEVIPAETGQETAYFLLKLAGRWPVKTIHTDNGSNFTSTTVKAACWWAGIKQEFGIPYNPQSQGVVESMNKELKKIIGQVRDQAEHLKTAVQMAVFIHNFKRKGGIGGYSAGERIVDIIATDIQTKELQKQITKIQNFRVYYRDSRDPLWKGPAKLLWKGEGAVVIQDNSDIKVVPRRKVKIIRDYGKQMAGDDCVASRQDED
Usually IC50 stands for the midpoint of a concentration-inhibition curve. Lower therefore signals inhibition by little substance. `O=C(O)C(Cc1ccc(O)c(O)c1)C(Cc1ccc(O)c(O)c1)C(=O)O` (stereo not given): inhibition was half-maximal at 19.1 µM (IC50). The result for `COc1ccc(CC(C(=O)O)C(Cc2ccc(OC)c(OC)c2)C(=O)O)cc1OC` (stereo not given) reads more than 150 µM; that for `O=C1NC(=O)C(c2ccc(O)c(O)c2)=C1c1ccc(O)c(O)c1`, 15.5 µM; that for `COc1ccc(C2=C(c3ccc(OC)c(OC)c3)C(=O)NC2=O)cc1OC`, more than 150 µM. `O=C1OC(=O)C(c2ccc(O)c(O)c2)=C1c1ccc(O)c(O)c1` showed an IC50 of 3.8 µM.

Regarding `COc1ccc(C(C(=O)O)C(C(=O)O)c2ccc(OC)c(OC)c2)cc1OC` (stereo not given), the IC50 is more than 150 µM. `O=C(O)c1[nH]c(C(=O)O)c(-c2ccc(O)c(O)c2)c1-c1ccc(O)c(O)c1`: the IC50 worked out at 5.3 µM.

`COc1ccc(C2=C(c3ccc(OC)c(OC)c3)C(=O)OC2=O)cc1OC` showed a half-inhibitory concentration (IC50) of more than 150 µM.

`COc1ccc(-c2c(C(=O)O)[nH]c(C(=O)O)c2-c2ccc(OC)c(OC)c2)cc1OC`: the IC50 was more than 150 µM.

`O=C(O)C(c1ccc(O)c(O)c1)C(C(=O)O)c1ccc(O)c(O)c1` (stereo not given) returned a concentration for half-maximal inhibition (IC50) of 23.6 µM.
